Experimental data as given in patent US20170333532A1, “ADP'ASE-ENHANCED APYRASE THERAPY FOR WOUNDS, MICROBIAL INFECTION, SEPSIS, AND HETEROTOPIC OSSIFICATION” (APT THERAPEUTICS, INC, priority 2014, published 2017).

Experiments:
[1] = test system: E. coli strain K12; test: Effect of colistin, Apyrase Agent and combinations on E. coli growth curve; format: cell-based
Protocol: The effect of colistin, Apyrase agent, and combinations thereof were examined on E. coli growth.
E. coli strain K12 was cultivated to a concentration of about 0.1 OD (A600 nm).
The effect of colistin on E. coli growth. Replicate cultures were cultivated in the presence of colistin (at a concentration of 0.25 μg/ml) and various amounts of additional Apyrase Agent buffer (Tris-biffered saline; 1, 3, 10, or 30 μL).
The effect of Apyrase Agent on E. coli growth. Replicate cultures were cultivated in the presence of Apyrase Agent at various concentrations (i.e. 1, 3, 10, or 30 U/ml).
The effect of a combination of colistin and Apyrase Agent on E. coli growth. Replicate cultures were cultivated in the presence of colistin (at a concentration of […]) combined with Apyrase Agent at various concentrations (namely 1, 3, 10, or 30 U/ml).

[2] = test system: P. aeruginosa AU0584; test: Killing of P. aeruginosa AU0584 by colistin with Apyrase Agent, CFU count; format: cell-based; settings: colistin at less than 10 μg/ml, with Apyrase Agent 2 U/ml or alone
Protocol: In this Example (and in subsequent Examples), the colistin is colistin sulfate salt, catalog number C4461 from Sigma-Aldrich (St. Louis, Mo.) and the apyrase is catalog number M0393L from New England BioLabs Inc. (Ipswich, Mass.).
P. aeruginosa AU0584 is grown in the presence of combinations of 0 and 2 U/ml of Apyrase Agent and approximately 0 to 20 μg/ml of colistin. After incubation, the numbers of viable cells are determined by counting the colony forming units (CFU) on the plate (data provided as CFU/ml). Apyrase Agent improves the efficiency of killing P. aeruginosa AU0584 by colistin. Apyrase Agent increases the effectiveness of colistin at less than 10 μg/ml such that less than 10 to 100 CFU/ml are detected relative to greater than 10^3 to 10^4 in the presence of colistin alone at the same concentrations.

colistin sulfate salt
effect on E coli growth ([1]; colistin 0.25 μg/ml plus Apyrase Agent buffer 1, 3, 10, or 30 μL, 24 hour period, FIG. 1): no effect | effect on E. coli growth ([1]; colistin 0.25 mg/ml alone or combined with Apyrase Agent 1, 3, 10, or 30 U/ml, FIG. 3): negligible effect | numbers of viable cells (CFU) [2]: 10^3 to 10^4 CFU/ml
